Laboratory results: patent publication US4241077A, “β-Oxo-3-thiophenepropionitrile and β-amino-2-(3)-thiopheneacrylonitriles” (American Cyanamid Company, priority 1979, dated 1980)

Assays:
[1] = tested on: adjuvant induced arthritis (Freund's adjuvant) in rats; experiment: Adjuvant induced arthritis in rats (oral, once daily days 0 through 13 post challenge); type: in vivo, Royal Hart, Wistar strain rats
Procedure: Groups of three Royal Hart, Wistar strain rats weighing 200±10 grams each were injected intradermally in the right hind paw with Freund's adjuvant (dried human tubercle bacilli in a mineral oil vehicle) at a dose of 2 mg./kg. of body weight. Test compounds were administered orally in a 1.5% starch vehicle at various doses once daily on days 0 through 13 post challenge. Control rats were treated in a similar manner, but given only starch vehicle. On the 14th and 21st day post challenge the diameter of the injected paw (primary lesion) was measured by micrometer caliper. The volume of inflamed paws were estimated from these measurements and the results are expressed as percent inhibition of swelling as compared to controls. At the same time, the other inflamed sites, such as ears, paws and tail (secondary lesions) were observed and each rat was graded as to degree of inflammation and swelling present. The grading is based on a scale of 0 to 24, where 0 represents a complete absence of induced arthritic nodules and 24 represents the maximum degree of inflammation. The mean grade for each treated group is calculated and the effects of each compound are expressed as percent inhibition of the control grade. Table I below records the results of tests conducted with the compounds of this invention and known anti-inflammatory agents. The compounds of this invention appear to suppress the progression of the arthritis and associated joint deterioration.

[2] = tested on: adjuvant induced experimental polyarthritis; details: result in words; literature; cited from earlier work

CC(=O)Oc1ccccc1C(=O)O [Aspirin, reference compound]
Inhibition of Swelling (primary lesion) ([1]; oral 50 mg./kg., Day 14): 23% | Inhibition of Swelling (primary lesion) ([1]; oral 50 mg./kg., Day 21): 3% | Inhibition of Swelling (primary lesion) ([1]; oral 100 mg./kg., Day 14): 36% | Inhibition of Swelling (primary lesion) ([1]; oral 100 mg./kg., Day 21): 13% | Inhibition of Swelling (primary lesion) ([1]; oral 200 mg./kg., Day 14): 48% | Inhibition of Swelling (primary lesion) ([1]; oral 200 mg./kg., Day 21): 27% | Inhibition of Swelling (primary lesion) ([1]; oral 400 mg./kg., Day 14): 73% | Inhibition of Swelling (primary lesion) ([1]; oral 400 mg./kg., Day 21): 48%

COc1ccc2c(c1)c(CC(=O)O)c(C)n2C(=O)c1ccc(Cl)cc1 [Indomethocin, reference compound]
Inhibition of Swelling (primary lesion) ([1]; oral 0.25 mg./kg., Day 14): 30% | Inhibition of Swelling (primary lesion) ([1]; oral 0.25 mg./kg., Day 21): 4% | Inhibition of Swelling (primary lesion) ([1]; oral 0.5 mg./kg., Day 14): 40% | Inhibition of Swelling (primary lesion) ([1]; oral 0.5 mg./kg., Day 21): 20% | Inhibition of Swelling (primary lesion) ([1]; oral 1 mg./kg., Day 14): 46% | Inhibition of Swelling (primary lesion) ([1]; oral 1 mg./kg., Day 21): 19% | Inhibition of Swelling (primary lesion) ([1]; oral 2 mg./kg., Day 14): 51% | Inhibition of Swelling (primary lesion) ([1]; oral 2 mg./kg., Day 21): 24% | arthritic paw swelling; joint and bone deterioration [2]: prevent joint and bone deterioration

CCCCC1C(=O)N(c2ccccc2)N(c2ccccc2)C1=O [Phenylbutazone, reference compound]
Inhibition of Swelling (primary lesion) ([1]; oral 18.8 mg./kg., Day 14): 31% | Inhibition of Swelling (primary lesion) ([1]; oral 18.8 mg./kg., Day 21): 7% | Inhibition of Swelling (primary lesion) ([1]; oral 37.5 mg./kg., Day 14): 56% | Inhibition of Swelling (primary lesion) ([1]; oral 37.5 mg./kg., Day 21): 14% | Inhibition of Swelling (primary lesion) ([1]; oral 75 mg./kg., Day 14): 62% | Inhibition of Swelling (primary lesion) ([1]; oral 75 mg./kg., Day 21): 28% | Inhibition of Swelling (primary lesion) ([1]; oral 150 mg./kg., Day 14): 75% | Inhibition of Swelling (primary lesion) ([1]; oral 150 mg./kg., Day 21): 44%

N#CC=C(N)c1cccs1 [β-Amino-2-thiopheneacrylonitrile, β-amino-2-thiopheneacrylonitrile]
Dead/Treated at 21 Days ([1]; oral 50 mg./kg. of body weight): 1/33 | % Inhibition of Control Grade (secondary lesion) ([1]; oral 50 mg./kg., Day 14): 21% | Inhibition of Swelling (primary lesion) ([1]; oral 50 mg./kg., Day 14): 44% | Mean Weight Gain ([1]; oral 50 mg./kg., Day 14): 54 grams | % Inhibition of Control Grade (secondary lesion) ([1]; oral 50 mg./kg., Day 21): 6% | Inhibition of Swelling (primary lesion) ([1]; oral 50 mg./kg., Day 21): 23% | Mean Weight Gain ([1]; oral 50 mg./kg., Day 21): 50 grams | Dead/Treated at 21 Days ([1]; oral 100 mg./kg. of body weight): 2/18 | % Inhibition of Control Grade (secondary lesion) ([1]; oral 100 mg./kg., Day 14): 25% | Inhibition of Swelling (primary lesion) ([1]; oral 100 mg./kg., Day 14): 49% | Mean Weight Gain ([1]; oral 100 mg./kg., Day 14): 45 grams | % Inhibition of Control Grade (secondary lesion) ([1]; oral 100 mg./kg., Day 21): 16% | Inhibition of Swelling (primary lesion) ([1]; oral 100 mg./kg., Day 21): 27% | Mean Weight Gain ([1]; oral 100 mg./kg., Day 21): 51 grams | Dead/Treated at 21 Days ([1]; oral 200 mg./kg. of body weight): 6/18 | % Inhibition of Control Grade (secondary lesion) ([1]; oral 200 mg./kg., Day 14): 80% | Inhibition of Swelling (primary lesion) ([1]; oral 200 mg./kg., Day 14): 70% | Mean Weight Gain ([1]; oral 200 mg./kg., Day 14): 36 grams | % Inhibition of Control Grade (secondary lesion) ([1]; oral 200 mg./kg., Day 21): 57% | Inhibition of Swelling (primary lesion) ([1]; oral 200 mg./kg., Day 21): 61% | Mean Weight Gain ([1]; oral 200 mg./kg., Day 21): 53 grams

N#CC=C(N)c1ccsc1 [β-Amino-3-thiopheneacrylonitrile, β-amino-3-thiopheneacrylonitrile]
Dead/Treated at 21 Days ([1]; oral 50 mg./kg. of body weight): 2/18 | Inhibition of Swelling (primary lesion) ([1]; oral 50 mg./kg., Day 14): 52% | Mean Weight Gain ([1]; oral 50 mg./kg., Day 14): 47 grams | Inhibition of Swelling (primary lesion) ([1]; oral 50 mg./kg., Day 21): 41% | Mean Weight Gain ([1]; oral 50 mg./kg., Day 21): 54 grams

N#CCC(=O)c1ccsc1 [β-Oxo-3-thiophenepropionitrile, β-oxo-3-thiophenepropionitrile]
Dead/Treated at 21 Days ([1]; oral 50 mg./kg. of body weight): 1/18 | Inhibition of Swelling (primary lesion) ([1]; oral 50 mg./kg., Day 14): 61% | Mean Weight Gain ([1]; oral 50 mg./kg., Day 14): 53 grams | Inhibition of Swelling (primary lesion) ([1]; oral 50 mg./kg., Day 21): 26% | Mean Weight Gain ([1]; oral 50 mg./kg., Day 21): 50 grams
